The text below walks through data of PubChem BioAssay (NCI).

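1) Cells in 96-well plates. 2) Compound, 48 h, 5 concentrations. 3) Linear interpolation between surrounding doses. 4) Unreached endpoint = highest concentration. At the GI50, growth is halved. TGI is the concentration that stops growth completely.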

Some test systems named below: SK-MEL-28 melanoma; OVCAR-8 ovarian; MDA-MB-231 breast; UO-31 renal; OVCAR-3 ovarian; HT29 colon; COLO 205 colon; A549 NSCLC; SK-MEL-5 melanoma; CAKI-1 renal.
What all share (assay): NCI-60 cell line screen, 48 h

Turning to `C#CCN(Cc1nc2cc(C(F)(F)F)ccc2nc1-c1ccccc1)c1ccc(F)c(F)c1`, the GI50 was over 100 µM in the assay on SK-MEL-28 melanoma; 31.6 µM in the assay on OVCAR-8 ovarian; 21.9 µM with MDA-MB-231 breast; 36.1 µM with UO-31 renal; 13.9 µM in the assay with OVCAR-3 ovarian; 41.1 µM in the assay with HT29 colon. The GI50 is 29.4 µM in the assay on COLO 205 colon, 19.8 µM with A549 NSCLC and 19.1 µM in the assay with SK-MEL-5 melanoma. The TGI with SK-MEL-28 melanoma was over 100 µM; with OVCAR-8 ovarian, over 100 µM; in the assay on MDA-MB-231 breast, over 100 µM; with UO-31 renal, over 100 µM; in the assay with OVCAR-3 ovarian it was 61.8 µM; in the assay on HT29 colon it was over 100 µM. Moreover, the TGI in the assay on COLO 205 colon was over 100 µM; with A549 NSCLC, 82.1 µM; with SK-MEL-5 melanoma it was 46.2 µM.

For `CN(C)CCNc1nc(-c2cccs2)cc(-c2cccs2)n1`, the TGI in the assay on SK-MEL-28 melanoma came to 30 µM; in the assay on OVCAR-8 ovarian it was 21.7 µM; in the assay with UO-31 renal, 23.6 µM; in the assay with OVCAR-3 ovarian, 48.7 µM; in the assay with HT29 colon it was 22.2 µM; in the assay with COLO 205 colon, 27.9 µM. In addition, the TGI with A549 NSCLC came out at 32.4 µM; in the assay with SK-MEL-5 melanoma, 29.6 µM.

`OCC(O)C(OC1OC(CO)C(O)C(O)C1O)c1nn(-c2ccccc2)c2nc3cc(Cl)ccc3nc12` (stereo not given): the TGI with SK-MEL-28 melanoma, with OVCAR-8 ovarian, in the assay with UO-31 renal, in the assay with OVCAR-3 ovarian and in the assay with HT29 colon was over 100 µM throughout.

With `NCP(=O)(O)OCC(=O)O`, the TGI in the assay with SK-MEL-28 melanoma, with OVCAR-8 ovarian, in the assay on UO-31 renal, with CAKI-1 renal, in the assay with OVCAR-3 ovarian and in the assay with HT29 colon was over 100 µM each time. Moreover, the TGI with COLO 205 colon, with A549 NSCLC and in the assay on SK-MEL-5 melanoma was over 100 µM in each case.

Consider `N#C/C(=C\c1ccccc1Br)C(=O)c1ccccc1`, for which the TGI was over 59.1 µM in the assay with SK-MEL-28 melanoma; over 38.6 µM with OVCAR-8 ovarian; over 53.9 µM in the assay with UO-31 renal; over 100 µM with CAKI-1 renal; over 69.2 µM in the assay on OVCAR-3 ovarian; over 100 µM in the assay on HT29 colon. Further, the TGI in the assay with COLO 205 colon was over 100 µM; in the assay with A549 NSCLC it was over 70 µM; with SK-MEL-5 melanoma it was 34.6 µM.

Take `Cc1ccc(NC(=O)CCC(=O)C(C#N)c2ccccc2)cc1C` (stereo not given): the TGI in the assay on OVCAR-8 ovarian, in the assay with UO-31 renal, in the assay on CAKI-1 renal, in the assay on OVCAR-3 ovarian, in the assay with HT29 colon and with COLO 205 colon was over 100 µM in each case. Also, the TGI in the assay on A549 NSCLC and in the assay with SK-MEL-5 melanoma was over 100 µM throughout.

As for `CC(=O)CC(=O)/C=C/c1cccs1`, the TGI in the assay with OVCAR-8 ovarian, in the assay on UO-31 renal, in the assay with CAKI-1 renal, with OVCAR-3 ovarian, in the assay on HT29 colon and in the assay on COLO 205 colon was over 100 µM throughout. Besides, the TGI in the assay on A549 NSCLC and in the assay with SK-MEL-5 melanoma was over 100 µM throughout.

In the case of `CCOC(=O)NC(=O)c1c[nH]c(=O)[nH]c1=O`, the TGI with SK-MEL-28 melanoma, in the assay on OVCAR-8 ovarian, in the assay on UO-31 renal, in the assay with CAKI-1 renal, in the assay with OVCAR-3 ovarian and in the assay with HT29 colon was over 100 µM each time. In addition, the TGI with COLO 205 colon, in the assay with A549 NSCLC and with SK-MEL-5 melanoma was over 100 µM in each case.

For `Nc1nc(N)c(-c2ccccc2)c(CCC(=O)Nc2ccc(Cl)cc2)n1`, the TGI in the assay with SK-MEL-28 melanoma, in the assay with OVCAR-8 ovarian, with UO-31 renal, in the assay with CAKI-1 renal, with OVCAR-3 ovarian and with HT29 colon was over 100 µM each time. The TGI in the assay on COLO 205 colon, in the assay on A549 NSCLC and with SK-MEL-5 melanoma was over 100 µM throughout.

Regarding `CCOC(=O)/N=c1/nc(N(C)C)ss1`, the TGI in the assay with SK-MEL-28 melanoma, with OVCAR-8 ovarian, with UO-31 renal, with CAKI-1 renal, in the assay with HT29 colon and in the assay with A549 NSCLC was over 100 µM in each case. This molecule gave a TGI with SK-MEL-5 melanoma of over 100 µM.

For the molecule `NS(=O)(=O)c1ccc(NC(=O)COC(=O)c2cccc3c(=O)c4ccccc4[nH]c23)cc1`, the TGI was over 100 µM with SK-MEL-28 melanoma; 65.8 µM in the assay with OVCAR-8 ovarian; over 87 µM with UO-31 renal; over 100 µM with CAKI-1 renal; 47.6 µM with OVCAR-3 ovarian; over 100 µM in the assay with HT29 colon. The TGI in the assay with COLO 205 colon, with A549 NSCLC and with SK-MEL-5 melanoma was over 100 µM throughout.

As to `Cc1ccc(S(=O)OC23CC4CC(CC(C4)C2)C3)cc1` (stereo not given), the TGI in the assay on SK-MEL-28 melanoma, in the assay on OVCAR-8 ovarian, in the assay with UO-31 renal, in the assay on CAKI-1 renal, in the assay with OVCAR-3 ovarian and in the assay with HT29 colon was over 100 µM each time. The TGI in the assay on COLO 205 colon, in the assay with A549 NSCLC and in the assay with SK-MEL-5 melanoma was over 100 µM in each case.

`C#CCN(C)C(=O)N(CC#C)N=O`: the TGI in the assay with SK-MEL-28 melanoma, in the assay with OVCAR-8 ovarian, in the assay on UO-31 renal, in the assay on OVCAR-3 ovarian, in the assay with HT29 colon and in the assay with COLO 205 colon was over 100 µM throughout. In addition, the TGI with A549 NSCLC and in the assay on SK-MEL-5 melanoma was over 100 µM throughout.

As for `CN(C)CC1CCCC/C1=N/OC(=O)c1ccc(Cl)c(Cl)c1` (stereo not given), the TGI with SK-MEL-28 melanoma, in the assay with OVCAR-8 ovarian, in the assay on UO-31 renal, with CAKI-1 renal, in the assay on OVCAR-3 ovarian and in the assay on HT29 colon was over 100 µM in each case. Moreover, the TGI with COLO 205 colon, in the assay with A549 NSCLC and with SK-MEL-5 melanoma was over 100 µM throughout.
